From the supplement of paper PMC11451515

Test system: SEM cells
Experiment: cell viability relative to DMSO control; higher = less cytotoxic
Settings: 48 h
How it was run: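 Viability values are per-plate percentages of DMSO wells, with background from cell-free wells. Library compounds in DMSO were pin-dosed, in an 11-point threefold series from 47 μM to 0.79 nM, onto NOMO1 or SEM (500 cells/well) or P12-Ichikawa (1000 cells/well) leukemia cells in 1536-well plates (5 μl). Those cells had been adapted for at least four passages in each medium, and CellTiter-Glo One luminescence was read after 48 h at 37°C.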

[1] = HPLM + 10% dialyzed FBS, 0.000781 µM
[2] = HPLM + 10% dialyzed FBS, 0.00234 µM
[3] = HPLM + 10% dialyzed FBS, 0.00702 µM
[4] = HPLM + 10% dialyzed FBS, 0.0211 µM
[5] = HPLM + 10% dialyzed FBS, 0.0632 µM
[6] = HPLM + 10% dialyzed FBS, 0.19 µM
[7] = HPLM + 10% dialyzed FBS, 0.569 µM
[8] = HPLM + 10% dialyzed FBS, 1.71 µM
[9] = HPLM + 10% dialyzed FBS, 5.12 µM
[10] = HPLM + 10% dialyzed FBS, 15.4 µM
[11] = HPLM + 10% dialyzed FBS, 46.1 µM
[12] = RPMI 5 mM glucose + 10% FBS, 0.000781 µM
[13] = RPMI 5 mM glucose + 10% FBS, 0.00234 µM
[14] = RPMI 5 mM glucose + 10% FBS, 0.00702 µM
[15] = RPMI 5 mM glucose + 10% FBS, 0.0211 µM
[16] = RPMI 5 mM glucose + 10% FBS, 0.0632 µM
[17] = RPMI 5 mM glucose + 10% FBS, 0.19 µM
[18] = RPMI 5 mM glucose + 10% FBS, 0.569 µM
[19] = RPMI 5 mM glucose + 10% FBS, 1.71 µM
[20] = RPMI 5 mM glucose + 10% FBS, 5.12 µM
[21] = RPMI 5 mM glucose + 10% FBS, 15.4 µM
[22] = RPMI 5 mM glucose + 10% FBS, 46.1 µM
[23] = RPMI 5 mM glucose + 10% dialyzed FBS, 0.000781 µM
[24] = RPMI 5 mM glucose + 10% dialyzed FBS, 0.00234 µM
[25] = RPMI 5 mM glucose + 10% dialyzed FBS, 0.00702 µM
[26] = RPMI 5 mM glucose + 10% dialyzed FBS, 0.0211 µM
[27] = RPMI 5 mM glucose + 10% dialyzed FBS, 0.0632 µM
[28] = RPMI 5 mM glucose + 10% dialyzed FBS, 0.19 µM
[29] = RPMI 5 mM glucose + 10% dialyzed FBS, 0.569 µM
[30] = RPMI 5 mM glucose + 10% dialyzed FBS, 1.71 µM
[31] = RPMI 5 mM glucose + 10% dialyzed FBS, 5.12 µM
[32] = RPMI 5 mM glucose + 10% dialyzed FBS, 15.4 µM
[33] = RPMI 5 mM glucose + 10% dialyzed FBS, 46.1 µM

Row | SMILES | cell viability [1] [%] | cell viability [2] [%] | cell viability [3] [%] | cell viability [4] [%] | cell viability [5] [%] | cell viability [6] [%] | cell viability [7] [%] | cell viability [8] [%] | cell viability [9] [%] | cell viability [10] [%] | cell viability [11] [%] | cell viability [12] [%] | cell viability [13] [%] | cell viability [14] [%] | cell viability [15] [%] | cell viability [16] [%] | cell viability [17] [%] | cell viability [18] [%] | cell viability [19] [%] | cell viability [20] [%] | cell viability [21] [%] | cell viability [22] [%] | cell viability [23] [%] | cell viability [24] [%] | cell viability [25] [%] | cell viability [26] [%] | cell viability [27] [%] | cell viability [28] [%] | cell viability [29] [%] | cell viability [30] [%] | cell viability [31] [%] | cell viability [32] [%] | cell viability [33] [%]
1 | CCOC(=O)O[C@]1(C(=O)OCCl)CC[C@H]2[C@@H]3CCC4=CC(=O)C=C[C@]4(C)[C@H]3[C@@H](O)C[C@@]21C | 84.2 | 92.5 | 93.3 | 102 | 101 | 99.3 | 95.6 | 96 | 102 | 88.7 | 100 | 82.9 | 85.4 | 87.9 | 84.6 | 92.7 | 87.3 | 85.1 | 109 | 107 | 96.1 | 96.6 | 83.5 | 87.4 | 93.6 | 85.7 | 85.4 | 94.8 | 86.1 | 89.3 | 96.4 | 99.2 | 92
2 | CCCCCN(CCC12CC3CC(CC(C3)C1)C2)C(=O)NCCCc1ccncc1 | 96.2 | 110 | 108 | 106 | 102 | 109 | 107 | 106 | 107 | 102 | 89.9 | 97.1 | 92.9 | 100 | 106 | 112 | 110 | 97.3 | 114 | 96.9 | 108 | 100 | 86.9 | 96 | 106 | 110 | 105 | 107 | 106 | 116 | 120 | 90.6 | 97
3 | CC(C)(C)OC(=O)Nc1ccc(-c2cc(C(=O)NCCCCCCC(=O)NO)no2)cc1 | 87.5 | 87.7 | 95.7 | 102 | 77.4 | 99.6 | 102 | 72.4 | 33.5 | 4.09 | 4.02 | 94.9 | 88.1 | 102 | 101 | 74.7 | 101 | 107 | 44.2 | 30.2 | 4.09 | 4.76 | 84.3 | 83.2 | 79.8 | 88.9 | 79.7 | 90.7 | 87.7 | 28.1 | 20.1 | 3.52 | 3.79
4 | Cc1c(C(=O)c2cccc3ccccc23)c2cccc3c2n1[C@H](CN1CCOCC1)CO3 | 99.3 | 78.2 | 85.2 | 89.5 | 89.7 | 28.8 | 97.9 | 86.7 | 84 | 78.1 | 4.91 | 93.6 | 74.4 | 71.3 | 94.6 | 88.6 | 47.8 | 93.1 | 80.4 | 95.6 | 84.9 | 4.48 | 104 | 80.4 | 82 | 105 | 98 | 65.1 | 92.3 | 93.1 | 91.7 | 76.5 | 5.76
5 | NC(CO)C(=O)NNCc1ccc(O)c(O)c1O (stereo unspecified) | 93.3 | 116 | 105 | 89.9 | 106 | 99.8 | 102 | 103 | 104 | 89.4 | 84.2 | 99.8 | 104 | 101 | 84.7 | 101 | 105 | 98.3 | 96.1 | 72.9 | 99 | 12.6 | 103 | 105 | 104 | 89.2 | 95 | 88.5 | 100 | 91.4 | 90.5 | 87.8 | 18
6 | CC(C)(C)C1=CC(=C(NC(=O)C/2=C/NC3=C(C=CC=C3)C2=O)C=C1O)C(C)(C)C | 122 | 118 | 128 | 123 | 113 | 131 | 124 | 124 | 109 | 108 | 103 | 109 | 108 | 126 | 113 | 120 | 111 | 129 | 129 | 123 | 116 | 108 | 98.7 | 101 | 103 | 99.9 | 101 | 103 | 115 | 97.8 | 110 | 110 | 94.7
7 | CC(S)C(=O)NCC(=O)O (stereo unspecified) | 40 | 99 | 59.5 | 95 | 105 | 101 | 92.8 | 103 | 90.6 | 113 | 95 | 33 | 102 | 50.5 | 87.8 | 114 | 105 | 101 | 105 | 84 | 109 | 108 | 35.6 | 92.5 | 45 | 101 | 123 | 108 | 114 | 118 | 80.7 | 119 | 104
8 | C[N]1C=C(C=N1)C2=CC=C3N=CC\4=C(N(C(=O)\C=C4)C5=CC6=C(CCN6C(=O)C=C)C=C5)C3=C2 | 118 | 114 | 96.1 | 120 | 93.9 | 110 | 102 | 82.1 | 27.6 | 4.07 | 4.13 | 104 | 105 | 90.4 | 110 | 117 | 111 | 118 | 80.5 | 26.6 | 2.7 | 3.13 | – | – | – | – | – | – | – | – | – | – | –
9 | CCOC(=O)N[C@@H]1CC[C@@H]2[C@@H](C1)C[C@H]1C(=O)O[C@H](C)[C@H]1[C@H]2/C=C/c1ccc(-c2cccc(F)c2)cn1 | 86.6 | 87.5 | 102 | 111 | 105 | 104 | 111 | 99.5 | 112 | 104 | 75.7 | 95.9 | 81.8 | 98.5 | 107 | 111 | 107 | 106 | 103 | 103 | 100 | 23.3 | 108 | 87.3 | 110 | 112 | 117 | 115 | 108 | 119 | 112 | 112 | 37.1
10 | CCOC(=O)[C@H]1O[C@@H]1C(=O)N[C@@H](CC(C)C)C(=O)NCCC(C)C | 116 | 119 | 109 | 125 | 120 | 132 | 69.4 | 114 | 118 | 118 | 109 | 111 | 99.4 | 102 | 96.2 | 110 | 88.4 | 91.1 | 124 | 107 | 104 | 94.6 | – | – | – | – | – | – | – | – | – | – | –
11 | CC(C)Cn1cnc2c(N)nc3ccccc3c21 | 98.8 | 107 | 106 | 105 | 110 | 110 | 104 | 93.5 | 102 | 91.8 | 77.1 | 104 | 124 | 103 | 115 | 104 | 111 | 104 | 94.1 | 111 | 105 | 72.1 | 105 | 118 | 117 | 116 | 108 | 105 | 120 | 113 | 93.8 | 90.6 | 92
12 | N#C/C(=C1/Nc2ccccc2S1)c1ccnc(OCc2ccc(CN3CCOCC3)cc2)n1 | 103 | 97.2 | 112 | 101 | 109 | 108 | 106 | 100 | 121 | 108 | 99.3 | 114 | 98.1 | 107 | 115 | 99.4 | 115 | 115 | 117 | 102 | 110 | 87.7 | 85 | 84.4 | 118 | 110 | 111 | 100 | 113 | 113 | 104 | 109 | 87.8
13 | COc1cc2ncnc(Nc3cccc(Cl)c3)c2cc1OC | 99.7 | 112 | 93.1 | 105 | 77.8 | 62.7 | 53.5 | 30.7 | 32.4 | 31.3 | 4.45 | 121 | 118 | 113 | 119 | 76.8 | 50.2 | 50.7 | 19.1 | 7.71 | 6.3 | 4.71 | 98.5 | 111 | 93 | 102 | 77.7 | 58.8 | 59.1 | 22.8 | 19.3 | 9.12 | 3.77
14 | CC(C)n1cnc2c(NCCc3ccc(O)cc3)nc(-c3csc4ccccc34)nc21 | 105 | 91 | 99.5 | 114 | 114 | 139 | 116 | 122 | 122 | 39.8 | 10.4 | 111 | 103 | 102 | 108 | 101 | 125 | 129 | 99.2 | 77.2 | 8.37 | 8.04 | 106 | 97.7 | 103 | 110 | 114 | 127 | 132 | 122 | 57.7 | 11.4 | 7.89
15 | C[C@H](NCc1ccc(OCc2cccc(F)c2)cc1)C(N)=O | 81 | 102 | 102 | 107 | 97.6 | 76.7 | 58 | 42.3 | 29.6 | 30.7 | 9.65 | 102 | 99.9 | 106 | 100 | 106 | 92.1 | 60.1 | 44.1 | 26 | 22.1 | 10.9 | 78.5 | 99.8 | 102 | 85.1 | 102 | 67.1 | 47.6 | 27.9 | 21 | 20.6 | 13.2
16 | COC(=O)Nc1nc2ccc([S+]([O-])c3ccccc3)cc2[nH]1 (stereo unspecified) | 77.9 | 97.3 | 96.5 | 100 | 99.5 | 94.5 | 87.9 | 94.4 | 84 | 59.3 | 57.7 | 113 | 114 | 109 | 104 | 116 | 111 | 107 | 121 | 89.6 | 67.7 | 63 | 106 | 112 | 113 | 111 | 124 | 122 | 105 | 122 | 102 | 59.6 | 69.4
